As a reminder, the Ki is the equilibrium dissociation constant of an inhibitor or competing ligand from its target.

The record followed here is US6060462A, “Electrophilic peptide analogs as inhibitors of trypsin-like enzymes” (DuPont Pharmaceuticals Company, priority 1997, dated 2000).

Assay type in all cases: biochemical
One assay has as its target T1, human factor VIIa (Homo sapiens, UniProt P08709).
T1 construct: 50 nM human factor VIIa (BiosPacific, Emeryville, Calif.); purchased BiosPacific, Emeryville, Calif
T1 sequence (P08709 213-466 limits assumed): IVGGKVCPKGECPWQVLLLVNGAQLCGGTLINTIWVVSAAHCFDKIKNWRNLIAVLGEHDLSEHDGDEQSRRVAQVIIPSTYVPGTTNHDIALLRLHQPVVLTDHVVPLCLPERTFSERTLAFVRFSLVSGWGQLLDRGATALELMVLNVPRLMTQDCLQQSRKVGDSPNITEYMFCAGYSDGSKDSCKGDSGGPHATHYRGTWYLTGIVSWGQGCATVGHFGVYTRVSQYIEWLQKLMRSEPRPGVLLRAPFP
T1 sequence (P08709 61-212 partner limits assumed): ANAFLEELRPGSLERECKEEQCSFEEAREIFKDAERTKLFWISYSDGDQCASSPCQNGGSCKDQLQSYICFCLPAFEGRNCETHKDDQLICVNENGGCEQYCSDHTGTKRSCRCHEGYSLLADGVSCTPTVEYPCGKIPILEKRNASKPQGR
The assay is described as follows: Inhibition of Factor VIIa hydrolysis of chromogenic substrate S2288 (Ki). To be noted: purified human factor VIIa, 0.05 M tris buffer; for Ki: pH 7.6, read-out: Ki values for inhibition of Serine Proteases: Factor VIIa; for Ki values for inhibition of Serine Proteases: Factor VIIa: pH 7.6. How it is done:
(§1) The effectiveness of compounds of the present invention as inhibitors of blood coagulation proteases was determined using purified human proteases and synthetic substrates following procedures similar to those described in Kettner et al. (1990).
(§2) For these assays, the rate of enzymatic (thrombin, Factor Xa, and Factor VIIa) hydrolysis of chromogenic substrates (S2238 (H-D-Phe-Pip-Arg-pNA), S2222, and S2288, respectively; Kabi Pharmacia, Franklin, Ohio) was measured both in the absence and presence of compounds of the present invention. […] A decrease in the rate of absorbance change at 405 nm in the presence of inhibitor is indicative of enzyme inhibition. The results of this assay are expressed as inhibitory constant, Ki.
(§3) Thrombin and Xa determinations were made in 0.10 M sodium phosphate buffer, pH 7.5, containing 0.20 M NaCl, and 0.5% PEG 8000. VIIa determinations were made in 0.05 M tris buffer, pH 7.6, containing 0.10 M NaCl, 4 mM CaCl2, and 0.1% bovine serum albumin.
(§4) Reactions were allowed to go for 30 minutes and the velocities (rate of absorbance change vs time) were measured in the time frame of 25-30 minutes. The following relationship was used to calculate Ki values. [formula] where: vo is the velocity of the control in the absence of inhibitor;
(§5) vs is the velocity in the presence of inhibitor;
(§6) I is the concentration of inhibitor;
(§7) Ki is the dissociation constant of the enzyme: inhibitor complex;
(§8) S is the concentration of substrate;
(§9) Km is the Michaelis constant.

In a further assay the target is T2, human factor Xa (Homo sapiens, UniProt P00742).
T2 construct: 0.2-0.5 nM human thrombin or human factor Xa; purchased Enzyme Research Laboratories, South Bend, Ind
T2 sequence (P00742 235-488 limits assumed): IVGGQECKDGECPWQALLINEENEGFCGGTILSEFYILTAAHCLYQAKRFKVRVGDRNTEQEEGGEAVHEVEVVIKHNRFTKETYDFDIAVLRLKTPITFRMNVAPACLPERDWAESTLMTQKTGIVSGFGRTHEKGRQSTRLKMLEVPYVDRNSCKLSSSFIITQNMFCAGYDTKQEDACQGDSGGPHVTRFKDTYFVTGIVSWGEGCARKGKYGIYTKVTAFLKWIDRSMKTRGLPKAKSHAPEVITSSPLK
T2 sequence (P00742 41-179 partner limits assumed): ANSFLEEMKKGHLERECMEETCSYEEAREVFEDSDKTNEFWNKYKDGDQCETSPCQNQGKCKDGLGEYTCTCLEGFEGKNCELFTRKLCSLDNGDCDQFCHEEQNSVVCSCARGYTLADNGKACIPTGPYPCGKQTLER
The assay is described as follows: Inhibition of Factor Xa hydrolysis of chromogenic substrate S2222 (Ki). To be noted: purified human factor Xa, 0.10 M sodium phosphate buffer; for Ki values for inhibition of Serine Proteases: Factor Xa: pH 7.5. As for the experimental part: as §1, §2, §3, §4, §5, §6, §7, §8, §9

In another assay the target is human thrombin (Homo sapiens, UniProt P00734). The assay is described as follows: Inhibition of thrombin hydrolysis of chromogenic substrate S2238 (Ki). Details: 0.2-0.5 nM human thrombin or human factor Xa; purchased Enzyme Research Laboratories, South Bend, Ind. Conditions: purified human thrombin, 0.10 M sodium phosphate buffer, pH 7.5, read-out: Ki values for inhibition of Serine Proteases: Trombin. As for the experimental part: as §1, §2, §3, §4, §5, §6, §7, §8, §9

Where [1] appears, read: pH 7.5, read-out: Ki values for inhibition of Serine Proteases: Factor Xa.

Counter-ions that a name gives are not always drawn. Like-named read-outs stand apart in the source and are kept apart here.

With `COC(=O)CCC(=O)N(CC(=O)NC(CCCCN)B1OC2CC3CC(C3(C)C)C2(C)O1)C(=O)CCc1ccccc1` (stereo not drawn) [Example 54.3.1, Hydrocinnamoyl-[N-(Methyl Succinyl)-Gly]-boroLys-C10H16 HCl], the Ki at human factor VIIa was less than 50000 nM; on human factor Xa (setting [1]), less than 50000 nM; at human thrombin it was less than 500 nM.
`CC1(C)C2CC3OB(C(CCCCN)NC(=O)CN(CCc4ccccc4C4CCCC4)C(=O)CCc4ccccc4)OC3(C)C1C2` (stereo not drawn) [Example 54.3.2, Hydrocinnamoyl-[N-(2-(Cyclopentyl)-Phenethyl)-Gly]-boroLys-C10H16 HCl]: the figures for the Ki on human factor VIIa, on human factor Xa (setting [1]) and at human thrombin were less than 500 nM, less than 50000 nM and less than 500 nM, respectively.
For the compound `CC(C)(CN(CC(=O)NC(CCCNC(=N)N)B(O)O)C(=O)CCc1ccccc1)c1ccccc1` (stereo not drawn) [Example 55.1.1, Hydrocinnamoyl-[N-(2,2-(Dimethyl)-Phenethyl)-Gly]-boroArg--OH HCl], the Ki at human factor VIIa, at human factor Xa (setting [1]) and at human thrombin was less than 500 nM throughout.
In the case of `CC(C)(CN(CC(=O)NC(CCCNC(=N)N)B1OC2CC3CC(C3(C)C)C2(C)O1)C(=O)CCc1ccccc1)c1ccccc1` (stereo not drawn) [Example 56.1.1, Hydrocinnamoyl-[N-(2,2-(Dimethyl)-Phenethyl)-Gly]-boroArg-C10H16 HCl], the inhibition constant (Ki) on human factor VIIa, at human factor Xa (setting [1]) and on human thrombin was less than 500 nM in each case.
As for `CC1(C)C2CC3OB(C(CCCNC(=N)N)NC(=O)CN(CCc4ccccc4C4CC4)C(=O)CCc4ccccc4)OC3(C)C1C2` (stereo not drawn) [Example 56.1.2, Hydrocinnamoyl-[N-(2-(Cyclopropyl)-Phenethyl)--Gly]-boroArg-C10H16 HCl], the Ki on human factor VIIa, on human factor Xa (setting [1]) and on human thrombin was less than 500 nM throughout.
With `Cc1cc(C)cc(C(C)(C)CN(CC(=O)NC(CCCN=C(N)N)B2OC3CC4CC(C4(C)C)C3(C)O2)C(=O)CCc2ccccc2)c1` (stereo not drawn) [Example 56.3.3, Hydrocinnamoyl-{N-[2,2-(Dimethyl)-2-(3,5-dimethylphenyl)-ethyl]-Gly}-boroArg-C10H16 HCl], the Ki at human factor VIIa, on human factor Xa (setting [1]) and at human thrombin was less than 500 nM in each case.
Consider `CC(C)(CN(CC(=O)NC(CCCCN)B(O)O)C(=O)CCc1ccccc1)c1ccccc1` (stereo not drawn) [Example 59.1.1, Hydrocinnamoyl-[N-(2,2-(Dimethyl)-Phenethyl)-Gly]-boroLys--OH HCl], for which the Ki at human factor VIIa was less than 500 nM; on human factor Xa (pH 7.5, HCl, read-out: Ki values for inhibition of Serine Proteases: Factor Xa), less than 50000 nM; on human thrombin it was less than 500 nM.
Take `CC(C)(CN(CC(=O)NC(CCCN)B1OC2CC3CC(C3(C)C)C2(C)O1)C(=O)CCc1ccccc1)c1ccccc1` (stereo not drawn) [Example 60.3.3, Hydrocinnamoyl-[N-(2,2-(Dimethyl)-Phenethyl)-Gly]-boroOrn-C10H16 HCl]: the Ki at human factor VIIa is less than 50000 nM; at human factor Xa (setting [1]), less than 50000 nM; at human thrombin it was less than 500 nM.
Turning to `Cc1cc(C)cc(CCN(CC(=O)NC(CCCN)B2OC3CC4CC(C4(C)C)C3(C)O2)C(=O)CCc2ccccc2)c1` (stereo not drawn) [Example 60.4.1, Hydrocinnamoyl-{N-[2-(3,5-dimethylphenyl)-ethyl]-Gly}-boroOrn-C10H16 HCl], the Ki on human factor VIIa is less than 50000 nM; at human factor Xa (setting [1]), less than 50000 nM; on human thrombin, less than 500 nM.
In the case of `CN(CC(=O)NC(CO)CCCCN)C(=O)CCc1ccccc1` (stereo not drawn) [Example 61.3.1, Hydrocinnamoyl-Sar-NHCH(CH20H)(CH2)4--NH2], the “Ki values for inhibition of Serine Proteases: Factor VIIa” value (shortened to “Ki values for inhibition … Factor VIIa”) at human factor VIIa is given as “Inactive”. Besides, the “Ki values for inhibition of Serine Proteases: Factor Xa” value at human factor Xa was “Inactive”. Further, at human thrombin, the Ki was less than 50000 nM.
As to `CN(CC(=O)NC(CO)CCCCNC(=O)OCc1ccccc1)C(=O)CCc1ccccc1` (stereo not drawn) [Example 61.3.2, Hydrocinnamoyl-Sar-NHCH(CH20H)(CH2)4--NH(Z)], the “Ki values for inhibition … Factor VIIa” value at human factor VIIa was “Inactive”. For the same compound, the “Ki values for inhibition of Serine Proteases: Factor Xa” value at human factor Xa is reported as “Inactive”. For the same compound, the inhibitory constant (Ki) at human thrombin was less than 50000 nM.
Turning to `CN(CC(=O)NC(CCCBr)B1OC2CC3CC(C3(C)C)C2(C)O1)C(=O)c1ccccc1Sc1ccccc1C#N` (stereo not drawn) [Example 62.1.1], the Ki on human factor VIIa, at human factor Xa (setting [1]) and on human thrombin was less than 50000 nM in each case.
On to `CN(CC(=O)NC(CCCCBr)B1OC2CC3CC(C3(C)C)C2(C)O1)C(=O)c1ccccc1Sc1ccccc1C#N` (stereo not drawn) [Example 62.1.2], for which the Ki at human factor VIIa, at human factor Xa (setting [1]) and at human thrombin was less than 50000 nM in each case.
On to `CN(CC(=O)NC(CCCSC(=N)N)B1OC2CC3CC(C3(C)C)C2(C)O1)C(=O)c1ccccc1Sc1ccccc1C#N` (stereo not drawn) [Example 62.1.3, (2-(2-Cyano)-Thiophenyl)-Benzoyl-Sar-boroIrg-C10H16 HBr], for which the Ki at human factor VIIa, at human factor Xa (setting [1]) and at human thrombin was less than 500 nM in each case.
With `CN(CC(=O)NC(CCCN=[N+]=[N-])B1OC2CC3CC(C3(C)C)C2(C)O1)C(=O)c1ccccc1Sc1ccccc1C#N` (stereo not drawn) [Example 62.2.1], the Ki on human factor VIIa, at human factor Xa (setting [1]) and on human thrombin was less than 50000 nM in each case.
On to `CN(CC(=O)NC(CCCCSC(=N)N)B1OC2CC3CC(C3(C)C)C2(C)O1)C(=O)c1ccccc1Sc1ccccc1C#N` (stereo not drawn) [Example 62.2.2, (2-(2-Cyano)-Thiophenyl)-Benzoyl-Sar-borohomoIrg-C10H16 HBr], for which the Ki on human factor VIIa was less than 50000 nM; on human factor Xa (setting [1]), less than 500 nM; on human thrombin it was less than 500 nM.
As for `CN(CC(=O)NC(CCCCN=[N+]=[N-])B1OC2CC3CC(C3(C)C)C2(C)O1)C(=O)c1ccccc1Sc1ccccc1C#N` (stereo not drawn) [Example 62.2.3], the Ki at human factor VIIa, on human factor Xa (setting [1]) and on human thrombin was less than 50000 nM in each case.
In the case of `CN(CC(=O)NC(CCCN)B1OC2CC3CC(C3(C)C)C2(C)O1)C(=O)c1ccccc1Sc1ccccc1C#N` (stereo not drawn) [Example 62.3.1, (2-(2-Cyano)-Thiophenyl)-Benzoyl-Sar-boroOrn-C10H16 HCl], the Ki on human factor VIIa, on human factor Xa (setting [1]) and at human thrombin was less than 50000 nM throughout.
As for `CN(CC(=O)NC(CCCCNC(=N)N)B1OC2CC3CC(C3(C)C)C2(C)O1)C(=O)c1ccccc1Sc1ccccc1C#N` (stereo not drawn) [Example 62.3.2, (2-(2-Cyano)-Thiophenyl)-Benzoyl-Sar-borohomoArg-C10H16 HCl], the Ki at human factor VIIa is less than 50000 nM; at human factor Xa (setting [1]) it was less than 500 nM; at human thrombin, less than 500 nM.
Regarding `CN(CC(=O)NC(CCCNC(=N)N)B1OC2CC3CC(C3(C)C)C2(C)O1)C(=O)c1ccccc1Sc1ccccc1C#N` (stereo not drawn) [Example 62.3.3, 2-(2-cyanothiophenyl)-benzoyl-Sar-BoroArg C10 H16.HCl], the Ki on human factor VIIa, on human factor Xa (setting [1]) and on human thrombin was less than 500 nM in each case.
With `CN(CC(=O)NC(CCCSC(=N)N)B1OC2CC3CC(C3(C)C)C2(C)O1)C(=O)c1ccccc1Sc1ccccc1` (stereo not drawn) [Example 63.1.3, 2-(Thiophenyl)-Benzoyl-Sar-boroIrg-C10H16 HBr], the Ki at human factor VIIa is less than 50000 nM; on human factor Xa (setting [1]) it was less than 500 nM; on human thrombin, less than 500 nM.
On to `CN(CC(=O)NC(CCCN)B1OC2CC3CC(C3(C)C)C2(C)O1)C(=O)c1ccccc1Sc1ccccc1.Cl` (stereo not drawn) [Example 63.3.1, 2-(Thiophenyl)-Benzoyl-Sar-boroOrn-C10H16 HCl], for which the “Ki values for inhibition … Factor VIIa” value on human factor VIIa is “inactive”. Besides, the figures for the Ki at human factor Xa (setting [1]) and on human thrombin were less than 50000 nM and less than 500 nM, respectively.
With `CC(=O)N(CC(=O)NC(CCCCN)B1OC2CC3CC(C3(C)C)C2(C)O1)Cc1ccccc1Cc1ccccc1` (stereo not drawn) [Example 64.1.2, Acetyl-Gly[N-(2-(Benzyl)-Benzyl)]-boroLys-C10H16 HCl], the Ki on human factor VIIa was less than 500 nM; on human factor Xa (setting [1]), less than 50000 nM; at human thrombin it was less than 500 nM.
`CN(CC(=O)NC(CCCCN)B1OC2CC3CC(C3(C)C)C2(C)O1)C(=O)c1ccccc1Cc1cccc(Cl)c1` (stereo not drawn) [Example 64.2.3, 2-(3-chlorobenzyl)-benzoyl-Sar-Borolys C10 H16.HCl]: the Ki at human factor VIIa, at human factor Xa (setting [1]) and on human thrombin was less than 500 nM in each case.
